Source: patent publication US20260217708A1, “FUSED BENZAZEPINE DERIVATIVES FOR USE IN THE TREATMENT OF CANCER AND EPILEPSY” (UCB BIOPHARMA SRL, priority 2023, published 2026)

Key:
system Xc^− [1] = molecular target: T1, system Xc^− (Homo sapiens, UniProt Q9UPY5); experiment: [^14C]L-Cystine uptake assay; type: cell-based; design: endogenous in cells; host or cells: H4 cells; conditions: H4 cells, sodium-free HEPES buffer, 0.5 μM L-[14C]Cystine and 4.5 μM L-Cystine, 1 hour at 37° C.; read-out: pIC50 [^14C] L-Cystine uptake assay (converted)
T1 sequence (Q9UPY5 1-501): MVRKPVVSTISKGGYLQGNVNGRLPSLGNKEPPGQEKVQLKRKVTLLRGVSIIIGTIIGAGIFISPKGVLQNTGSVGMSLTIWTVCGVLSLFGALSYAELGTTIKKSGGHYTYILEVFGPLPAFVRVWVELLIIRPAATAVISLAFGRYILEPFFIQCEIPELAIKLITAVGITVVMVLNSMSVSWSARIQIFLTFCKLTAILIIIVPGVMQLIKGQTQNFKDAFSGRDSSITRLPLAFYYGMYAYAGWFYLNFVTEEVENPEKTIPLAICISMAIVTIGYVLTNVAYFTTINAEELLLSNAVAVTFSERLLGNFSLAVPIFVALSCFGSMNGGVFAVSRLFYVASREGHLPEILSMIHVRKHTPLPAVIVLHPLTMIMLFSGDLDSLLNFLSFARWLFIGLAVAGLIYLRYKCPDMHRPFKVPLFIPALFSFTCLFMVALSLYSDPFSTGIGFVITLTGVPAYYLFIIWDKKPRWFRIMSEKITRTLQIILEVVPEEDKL
T1 sequence (P08195 1-529 partner): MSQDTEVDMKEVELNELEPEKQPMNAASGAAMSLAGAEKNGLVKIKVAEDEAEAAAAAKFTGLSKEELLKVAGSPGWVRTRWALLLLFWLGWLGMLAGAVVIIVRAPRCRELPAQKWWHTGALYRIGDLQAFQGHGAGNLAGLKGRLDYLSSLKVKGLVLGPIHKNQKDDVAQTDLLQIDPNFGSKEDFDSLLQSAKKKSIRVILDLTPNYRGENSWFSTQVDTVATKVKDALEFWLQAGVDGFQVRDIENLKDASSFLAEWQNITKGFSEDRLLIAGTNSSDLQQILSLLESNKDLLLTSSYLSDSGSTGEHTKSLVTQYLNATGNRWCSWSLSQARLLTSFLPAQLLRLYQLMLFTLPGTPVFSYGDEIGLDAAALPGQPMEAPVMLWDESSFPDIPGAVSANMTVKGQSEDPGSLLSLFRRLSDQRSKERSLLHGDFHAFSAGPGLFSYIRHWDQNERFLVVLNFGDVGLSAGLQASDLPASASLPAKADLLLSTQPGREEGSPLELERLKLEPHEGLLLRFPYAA
Outline: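 H4 cells at 5×10^4 cells/well in sodium-free HEPES buffer were preincubated 15 min with compounds (1% DMSO). Uptake of 0.5 μM [14C]L-cystine plus 4.5 μM unlabelled L-cystine ran 1 hour at 37° C on scintillating plates. IC50 was set between 1% DMSO and 50 μM Erastin controls and expressed as pIC50.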

system Xc^− [2] = molecular target: T1, system Xc^−; experiment: Cystine-induced glutamate release assay; type: cell-based; design: endogenous in cells; host or cells: H4 cells; conditions: H4 cells, sodium-free HEPES buffer, 50 μM L-Cystine, 2 hours, Amplex Red glutamate readout; read-out: pIC50 Cystine-induced glutamate release assay (converted)
Outline: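 H4 cells in sodium-free HEPES buffer (pH 7.4), 2 days after plating; glutamate release induced with 50 μM L-cystine plus compound (1% DMSO), 2 h at 37 °C. Supernatant glutamate measured by Amplex Red fluorescence; IC50/pIC50 derived between 1% DMSO and 50 μM erastin controls.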

IC50 (system Xc^− [1]) | IC50 (system Xc^− [2]) | SMILES
39.8 to 100 nM | 39.8 to 100 nM | CN1CC(c2cc3c(c(Cl)n2)-c2cccnc2CC(=O)N3CC(=O)Nc2ccc(C(F)(F)F)cc2)C1 [#170, 2-[3-chloro-5-(1-methylazetidin-3-yl)-9-oxo-4,8,12-triazatricyclo[9.4.0.0^2,7]pentadeca-1(11),2(7),3,5,12,14-hexaen-8-yl]-N-[4-(trifluoromethyl)phenyl]acetamide]
15.8 to 39.8 nM | 39.8 to 100 nM | Cc1cc2c(c(F)n1)-c1cncc(F)c1C(C)C(=O)N2CC(=O)Nc1ccc(C(F)(F)F)cc1 (stereo not shown) [#171, 2-(3,12-difluoro-5,10-dimethyl-9-oxo-4,8,14-triazatricyclo[9.4.0.0^2,7]pentadeca-1(11),2(7),3,5,12,14-hexaen-8-yl)-N-[4-(trifluoromethyl)phenyl]acetamide]
15.8 to 39.8 nM | 15.8 to 39.8 nM | Cc1cc2c(c(F)n1)-c1ccnnc1C(C)C(=O)N2CC(=O)Nc1ccc(C(F)(F)F)cc1 (stereo not shown) [#172, 2-(3-fluoro-5,10-dimethyl-9-oxo-4,8,12,13-tetrazatricyclo[9.4.0.0^2,7]pentadeca-1(11),2(7),3,5,12,14-hexaen-8-yl)-N-[4-(trifluoromethyl)phenyl]acetamide]
< 15.8 nM | 15.8 to 39.8 nM | Cc1cc2c(c(Cl)n1)-c1ccnnc1C(C)C(=O)N2CC(=O)Nc1ccc(C(F)(F)F)cc1 (stereo not shown) [#173, 2-(3-chloro-5,10-dimethyl-9-oxo-4,8,12,13-tetrazatricyclo[9.4.0.0^2,7]pentadeca-1(11),2(7),3,5,12,14-hexaen-8-yl)-N-[4-(trifluoromethyl)phenyl]acetamide]
15.8 to 39.8 nM | 39.8 to 100 nM | Cc1cc2c(c(=O)n1C1CC1)-c1cccnc1C(C)C(=O)N2CC(=O)Nc1ccc(Cl)c(F)c1 (stereo not shown) [#179, N-(4-chloro-3-fluoro-phenyl)-2-(4-cyclopropyl-5,10-dimethyl-3,9-dioxo-4,8,12-triazatricyclo[9.4.0.0^2,7]pentadeca-1(11),2(7),5,12,14-pentaen-8-yl)acetamide]
15.8 to 39.8 nM | 39.8 to 100 nM | Cc1cc2c(c(F)n1)-c1cnccc1C(C)C(=O)N2CC(=O)Nc1ccc(C(F)(F)F)cc1 (stereo not shown) [#180, 2-(3-fluoro-5,10-dimethyl-9-oxo-4,8,14-triazatricyclo[9.4.0.0^2,7]pentadeca-1(11),2(7),3,5,12,14-hexaen-8-yl)-N-[4-(trifluoromethyl)phenyl]acetamide]
< 15.8 nM | 15.8 to 39.8 nM | Cc1cc2c(n(C)c1=O)-c1ccc(Cl)cc1C(C)C(=O)N2CC(=O)Nc1ccc(Cl)c(F)c1 (stereo not shown) [#181, N-(4-chloro-3-fluoro-phenyl)-2-(9-chloro-1,3,7-trimethyl-2,6-dioxo-7H-pyrido[3,2-d][3]benzazepin-5-yl)acetamide]
15.8 to 39.8 nM | 15.8 to 39.8 nM | COc1cc2c(c(F)n1)-c1cccnc1C(C)C(=O)N2CC(=O)Nc1ccc(C(F)(F)F)cc1 (stereo not shown) [#182, 2-(3-fluoro-5-methoxy-10-methyl-9-oxo-4,8,12-triazatricyclo[9.4.0.0^2,7]pentadeca-1(11),2(7),3,5,12,14-hexaen-8-yl)-N-[4-(trifluoromethyl)phenyl]acetamide]
39.8 to 100 nM | 100 to 501 nM | Cc1cc2c(c(F)n1)-c1cc[nH]c(=O)c1CC(=O)N2CC(=O)Nc1ccc(C(F)(F)F)cc1 [#183, 2-(3-fluoro-5-methyl-9,12-dioxo-4,8,13-triazatricyclo[9.4.0.0^2,7]pentadeca-1(11),2(7),3,5,14-pentaen-8-yl)-N-[4-(trifluoromethyl)phenyl]acetamide]
39.8 to 100 nM | 39.8 to 100 nM | CC1C(=O)N(CC(=O)Nc2ccc(C(F)(F)F)cc2)c2cc(F)c(=O)n(C)c2-c2cccnc21 (stereo not shown) [#185, 2-(5-fluoro-3,10-dimethyl-4,9-dioxo-3,8,12-triazatricyclo[9.4.0.0^2,7]pentadeca-1(11),2(7),5,12,14-pentaen-8-yl)-N-[4-(trifluoromethyl)phenyl]acetamide]
15.8 to 39.8 nM | 100 to 501 nM | Cc1cc2c(c(F)n1)-c1cncc(F)c1CC(=O)N2CC(=O)Nc1ccc(C(F)(F)F)cc1 [#212, 2-(3,12-difluoro-5-methyl-9-oxo-4,8,14-triazatricyclo[9.4.0.0^2,7]pentadeca-1(11),2(7),3,5,12,14-hexaen-8-yl)-N-[4-(trifluoromethyl)phenyl]acetamide]
15.8 to 39.8 nM | 39.8 to 100 nM | Cc1cc2c(c(F)n1)-c1cccnc1[C@@H](C)C(=O)N2CC(=O)Nc1ccc(F)cc1 [#233, 2-[(10R)-3-fluoro-5,10-dimethyl-9-oxo-4,8,12-triazatricyclo[9.4.0.0^2,7]pentadeca-1(15),2,4,6,11,13-hexaen-8-yl]-N-(4-fluorophenyl)acetamide]
39.8 to 100 nM | 15.8 to 39.8 nM | Cc1cc2c(c(F)n1)-c1cccnc1[C@@H](C)C(=O)N2CC(=O)Nc1ccc2c(c1)CC(F)(F)C2 [#237, N-(2,2-difluoroindan-5-yl)-2-[(10R)-3-fluoro-5,10-dimethyl-9-oxo-4,8,12-triazatricyclo[9.4.0.0^2,7]pentadeca-1(15),2,4,6,11,13-hexaen-8-yl]acetamide]
39.8 to 100 nM | 39.8 to 100 nM | Cc1cc2c(c(F)n1)-c1cccnc1[C@@H](C)C(=O)N2CC(=O)Nc1ccc2c(c1)OC(F)(F)O2 [#238, N-(2,2-difluoro-1,3-benzodioxol-5-yl)-2-[(10R)-3-fluoro-5,10-dimethyl-9-oxo-4,8,12-triazatricyclo[9.4.0.0^2,7]pentadeca-1(15),2,4,6,11,13-hexaen-8-yl]acetamide]
15.8 to 39.8 nM | < 15.8 nM | Cc1cc2c(c(F)n1)-c1cccnc1[C@@H](C)C(=O)N2CC(=O)Nc1ccc(F)c(Cl)c1 [#241, N-(3-chloro-4-fluoro-phenyl)-2-[(10R)-3-fluoro-5,10-dimethyl-9-oxo-4,8,12-triazatricyclo[9.4.0.0^2,7]pentadeca-1(15),2,4,6,11,13-hexaen-8-yl]acetamide]
39.8 to 100 nM | 15.8 to 39.8 nM | Cc1cc2c(c(F)n1)-c1cccnc1[C@@H](C)C(=O)N2CC(=O)Nc1ccc(Cl)cc1F [#242, N-(4-chloro-2-fluoro-phenyl)-2-[(10R)-3-fluoro-5,10-dimethyl-9-oxo-4,8,12-triazatricyclo[9.4.0.0^2,7]pentadeca-1(15),2,4,6,11,13-hexaen-8-yl]acetamide]
39.8 to 100 nM | 15.8 to 39.8 nM | Cc1cc2c(c(F)n1)-c1cccnc1[C@@H](C)C(=O)N2CC(=O)Nc1csc(Cl)c1 [#243, N-(5-chloro-3-thienyl)-2-[(10R)-3-fluoro-5,10-dimethyl-9-oxo-4,8,12-triazatricyclo[9.4.0.0^2,7]pentadeca-1(11),2(7),3,5,12,14-hexaen-8-yl]acetamide]
15.8 to 39.8 nM | 15.8 to 39.8 nM | Cc1cc2c(c(F)n1)-c1cccnc1[C@@H](C)C(=O)N2CC(=O)Nc1ccc(C(C)C)c(F)c1 [#244, 2-[(10R)-3-fluoro-5,10-dimethyl-9-oxo-4,8,12-triazatricyclo[9.4.0.0^2,7]pentadeca-1(11),2(7),3,5,12,14-hexaen-8-yl]-N-(3-fluoro-4-isopropyl-phenyl)acetamide]
< 15.8 nM | < 15.8 nM | Cc1cc2c(c(F)n1)-c1cccnc1[C@@H](C)C(=O)N2CC(=O)Nc1ccc(C2(F)CC2)cc1 [#246, N-[4-(1-fluorocyclopropyl)phenyl]-2-[(10R)-3-fluoro-5,10-dimethyl-9-oxo-4,8,12-triazatricyclo[9.4.0.0^2,7]pentadeca-1(11),2(7),3,5,12,14-hexaen-8-yl]acetamide]
39.8 to 100 nM | 39.8 to 100 nM | Cc1cc2c(c(F)n1)-c1cccnc1[C@@H](C)C(=O)N2CC(=O)Nc1ccc(C(F)(F)F)cc1F [#247, 2-[(10R)-3-fluoro-5,10-dimethyl-9-oxo-4,8,12-triazatricyclo[9.4.0.0^2,7]pentadeca-1(11),2(7),3,5,12,14-hexaen-8-yl)-N-[2-fluoro-4-(trifluoromethyl)phenyl]acetamide]
